# Experimental data published in patent publication US20230002361A1, “2H-INDAZOLE DERIVATIVES AND THEIR USE IN THE TREATMENT OF DISEASE” (BIOGEN MA INC., priority 2019, published 2023).
# Where a name gives a salt, the structure may show the parent alone.
# Assays:
# [1] = target: T1, MDR1 (P-gp) (Homo sapiens, UniProt P08183); test: MDR1-MDCK assay (efflux ratio); format: in vitro ADME; details: human, MDCK-MDR1, 1 μM compound, 120 minutes incubation; read-out: MDR1-MDCK Efflux Ratio; (B-A/A-B)
# T1 construct: host or cells: MDCK cells
# Procedure: • The assay makes use of human MDR1 transfected MDCK cells (NIH cell line in-licensed from Absorption Systems) • The compounds are tested at 1 μM concentration prepared in transport buffer (Hank's balanced salt solution with HEPES) • MDR1-MDCK cell are cultured for 7 days in 96 well transwell insert plates (Corning). Insert plates are washed before the assay and TEER (Trans epithelial electric resistance) is measured. • These plates are loaded with test compound solution 85 μL for A-B transport and 260 μL for B-A transport in the respective donor compartment.
# Mass balance=100×((Vr×Cr^final)+(Vd×Cd^final))/(Vd×CE) • Where: • dCr/dt is the cumulative concentration in the receiver compartment versus time in μM s^−1 • Vr is the volume of the receiver compartment in cm^3 • Vd is the volume of the donor compartment in cm^3 • A is the area of the insert (0.143 cm^2 for 96-well insert) • CE is the estimated experimental concentration (Time=0) of the dosing solution • Cr^final is the concentration of the receiver at the end of the incubation period • Cd^final is the concentration of the donor at the end of the incubation period.
# [2] = target: T2, IRAK4 (Homo sapiens, UniProt Q9NWZ3); test: IRAK4 MSD Biochemical Assay (1 mM ATP, 2 h); details: room temperature, read-out: IRAK4 MSD Biochemical Assay (1 mM ATP, 2 h) IC50
# T2 construct: with 0.1 nM IRAK4, 1.6 μM of biotinylated peptide substrate and 10 μM ATP
# T2 sequence (Q9NWZ3 1-460): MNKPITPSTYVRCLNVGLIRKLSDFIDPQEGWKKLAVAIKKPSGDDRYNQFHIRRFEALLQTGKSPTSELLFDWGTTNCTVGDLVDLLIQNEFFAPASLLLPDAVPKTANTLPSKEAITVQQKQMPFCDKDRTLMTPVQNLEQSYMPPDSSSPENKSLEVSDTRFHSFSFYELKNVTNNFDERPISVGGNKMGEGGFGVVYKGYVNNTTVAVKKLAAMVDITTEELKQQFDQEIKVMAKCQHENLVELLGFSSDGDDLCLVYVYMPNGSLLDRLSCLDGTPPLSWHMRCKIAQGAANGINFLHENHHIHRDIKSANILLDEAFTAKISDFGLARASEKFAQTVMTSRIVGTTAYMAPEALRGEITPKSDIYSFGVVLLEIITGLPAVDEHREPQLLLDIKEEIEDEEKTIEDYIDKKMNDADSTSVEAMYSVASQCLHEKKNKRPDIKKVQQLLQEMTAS
# Procedure: The 2-hour 10 μM ATP Biochemical Assay employs a MesoScale Detection (MSD) format.
# The activity is quenched with 11 μl of 70 mM EDTA, pH 8.
# To detect the phosphorylated biotinylated peptide substrate, 30 μl of the quenched reaction mixture is added to equivalent wells of a 384 well streptavidin coated MesoScale plate (Meso Scale Discovery #L21SA-1). After a 1 hour incubation of the plate for 1 hour at room temperature with gentle mixing, the plate wells are washed 3 times with 50 mM Tris, pH 7.5, 150 mM NaCl, 0.02% Tween-20.
# A 25 μl volume of 1:500 anti-P-Threonine Rabbit polyclonal Antibody plus 1:500 Goat-anti-Rabbit Sulfo Tag Antibody (Meso Scale Discovery R32AB-1) in 50 mM Tris, pH 7.5, 150 mM NaCl, 0.02% Tween-20 plus 2% BSA is then added to each well. After a 1-hour incubation of the plate for 1 hour at room temperature with gentle mixing, the plate wells are washed, 3 times with 50 mM Tris, pH 7.5, 150 mM NaCl, 0.02% Tween-20. A 40 μl volume of 2×MSD Read Buffer (Meso Scale Discovery R92TC-1) is added to each well, and the plate is read immediately in an MSD Plate Reader (Meso Scale Discovery).
# The 2-hour 1 mM ATP IRAK4 Biochemical assay was performed as described above, but with […] IRAK4 and 1 mM ATP.
# T1 sequence (P08183 whole entry): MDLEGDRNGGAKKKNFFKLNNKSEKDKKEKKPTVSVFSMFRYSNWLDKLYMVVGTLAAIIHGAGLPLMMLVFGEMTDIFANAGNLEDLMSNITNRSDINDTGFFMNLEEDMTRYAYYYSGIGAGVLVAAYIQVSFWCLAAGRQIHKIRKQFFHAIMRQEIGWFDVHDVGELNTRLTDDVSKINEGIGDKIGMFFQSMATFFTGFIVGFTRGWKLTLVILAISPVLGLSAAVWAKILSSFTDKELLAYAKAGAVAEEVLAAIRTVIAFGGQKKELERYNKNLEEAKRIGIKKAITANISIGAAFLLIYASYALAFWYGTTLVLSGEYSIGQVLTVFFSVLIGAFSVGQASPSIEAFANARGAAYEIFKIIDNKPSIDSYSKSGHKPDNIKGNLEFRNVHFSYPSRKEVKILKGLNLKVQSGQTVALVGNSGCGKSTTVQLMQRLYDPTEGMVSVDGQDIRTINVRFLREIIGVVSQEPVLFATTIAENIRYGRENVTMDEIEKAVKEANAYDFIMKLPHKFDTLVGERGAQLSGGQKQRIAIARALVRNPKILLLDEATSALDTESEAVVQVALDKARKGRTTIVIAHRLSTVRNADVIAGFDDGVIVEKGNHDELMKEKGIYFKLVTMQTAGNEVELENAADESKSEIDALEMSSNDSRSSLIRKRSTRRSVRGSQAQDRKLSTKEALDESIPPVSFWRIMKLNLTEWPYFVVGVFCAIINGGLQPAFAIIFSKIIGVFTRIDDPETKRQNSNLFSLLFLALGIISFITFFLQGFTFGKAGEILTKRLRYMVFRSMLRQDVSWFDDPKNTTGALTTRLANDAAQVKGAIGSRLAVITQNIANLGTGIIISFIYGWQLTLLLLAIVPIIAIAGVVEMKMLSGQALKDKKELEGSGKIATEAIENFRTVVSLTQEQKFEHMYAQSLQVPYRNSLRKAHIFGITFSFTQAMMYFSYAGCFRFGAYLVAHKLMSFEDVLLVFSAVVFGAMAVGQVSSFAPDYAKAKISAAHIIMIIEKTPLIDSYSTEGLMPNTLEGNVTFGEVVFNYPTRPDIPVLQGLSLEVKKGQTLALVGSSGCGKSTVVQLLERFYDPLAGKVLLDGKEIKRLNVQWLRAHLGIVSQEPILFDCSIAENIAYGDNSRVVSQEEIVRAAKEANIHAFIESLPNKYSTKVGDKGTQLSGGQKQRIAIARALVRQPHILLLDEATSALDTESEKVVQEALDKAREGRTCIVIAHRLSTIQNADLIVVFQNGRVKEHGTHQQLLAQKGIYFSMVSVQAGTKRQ
SMILES,"efflux ratio at 120 min, 1 μM [1]",IC50 [2] [µM]
"COc1cccc(NC(=O)c2cc3cn(CC4CCOC4)nc3cc2OC)n1.O=C(O)C(F)(F)F (centres unmarked) [Example 1, 6-Methoxy-N-(6-methoxypyridin-2-yl)-2-((tetrahydrofuran-3-yl)methyl)-2H-indazole-5-carboxamide Trifluoroacetate]",1.1,0.0327
"COc1cc2nn(CC3CCOC3)cc2cc1C(=O)Nc1ccccn1.O=C(O)C(F)(F)F (centres unmarked) [Example 2, 6-Methoxy-N-(pyridin-2-yl)-2-((tetrahydrofuran-3-yl)methyl)-2H-indazole-5-carboxamide trifluoroacetate]",1.7,0.373
"COc1cccc(NC(=O)c2cc3cn(CC45COC(C)(C4)C5)nc3cc2OC)n1.O=C(O)C(F)(F)F [Example 3, 6-Methoxy-N-(6-methoxypyridin-2-yl)-2-((1-methyl-2-oxabicyclo[2.1.1]hexan-4-yl)methyl)-2H-indazole-5-carboxamide trifluoroacetate]",0.9,10
"COc1cccc(NC(=O)c2cc3cn(C4CCOC4)nc3cc2OC)n1.O=C(O)C(F)(F)F (centres unmarked) [Example 4, 6-Methoxy-N-(6-methoxypyridin-2-yl)-2-(tetrahydrofuran-3-yl)-2H-indazole-5-carboxamide trifluoroacetate]",0.4,3.38
"COc1cccc(NC(=O)c2cc3cn(C4CCOCC4)nc3cc2OC)n1.O=C(O)C(F)(F)F [Example 5, 6-Methoxy-N-(6-methoxypyridin-2-yl)-2-(tetrahydro-2H-pyran-4-yl)-2H-indazole-5-carboxamide trifluoroacetate]",0.6,0.021
"COc1cc2nn(C3CCOCC3)cc2cc1C(=O)Nc1ccccn1.O=C(O)C(F)(F)F [Example 6, 6-Methoxy-N-(pyridin-2-yl)-2-(tetrahydro-2H-pyran-4-yl)-2H-indazole-5-carboxamide trifluoroacetate]",1.1,0.187
"COc1cccc(NC(=O)c2cc3cn(CC4CCOC4)nc3cn2)n1.O=C(O)C(F)(F)F (centres unmarked) [Example 7, N-(6-methoxypyridin-2-yl)-2-((tetrahydrofuran-3-yl)methyl)-2H-pyrazolo[3,4-c]pyridine-5-carboxamide Trifluoroacetate]",0.6,1.39
"O=C(Nc1cccc(C(F)F)n1)c1cc2cn(CC3CCOC3)nc2cn1 (centres unmarked) [Example 8, N-(6-(difluoromethyl)pyridin-2-yl)-2-((tetrahydrofuran-3-yl)methyl)-2H-pyrazolo[3,4-c]pyridine-5-carboxamide Trifluoroacetate]",0.6,0.275
"COc1cccc(NC(=O)c2cc(C)c3nn(CC4CCOC4)cc3c2)n1.O=C(O)C(F)(F)F (centres unmarked) [Example 9, N-(6-methoxypyridin-2-yl)-7-methyl-2-((tetrahydrofuran-3-yl)methyl)-2H-indazole-5-carboxamide Trifluoroacetate]",0.5,2.74
"CC(C)Oc1cc2nn(CCC(C)(C)O)cc2cc1C(=O)Nc1cccc(C(F)F)n1 [Example 13, N-(6-(difluoromethyl)pyridin-2-yl)-2-(3-hydroxy-3-methylbutyl)-6-isopropoxy-2H-indazole-5-carboxamide]",1.7,0.0004
"COc1cccc(NC(=O)c2cc(OC)c3nn(CCC(C)(C)O)cc3c2)n1.Cl [Example 14, 2-(3-Hydroxy-3-methylbutyl)-7-methoxy-N-(6-methoxypyridin-2-yl)-2H-indazole-5-carboxamide hydrochloride]",24.4,0.247

# More lines, now with the values ahead:
"efflux ratio at 120 min, 1 μM [1]",IC50 [2] [µM],SMILES
0.5,0.0004,"CC(C)Oc1cc2nn([C@]34CC[C@](C)(C3)OC4)cc2cc1C(=O)Nc1cccc(C(F)F)n1 (single isomer, unassigned) [Example 125]"
0.5,0.0002,"CC(C)Oc1cc2nn([C@@]34CC[C@@](C)(C3)OC4)cc2cc1C(=O)Nc1cccc(C(F)F)n1 (single isomer, unassigned) [Example 126]"
1,0.0004,"CC(C)Oc1cc2nn([C@]34CC[C@](C)(C3)OC4)cc2cc1C(=O)Nc1cnn2cccnc12 (single isomer, unassigned) [Example 127]"
1.4,0.0005,"CC(C)Oc1cc2nn([C@@]34CC[C@@](C)(C3)OC4)cc2cc1C(=O)Nc1cnn2cccnc12 (single isomer, unassigned) [Example 128]"
3.4,0.0057,"Cn1ccc(NC(=O)c2cc3cn(C4CCCOC4)nc3nc2OC2CCC2)n1 (single isomer, unassigned) [Example 129]"
2.6,0.0002,"Cc1cnc2c(NC(=O)c3cc4cn(C5CCCOC5)nc4nc3OC3CCC3)cnn2c1 (single isomer, unassigned) [Example 131]"
2.6,0.0017,"Cc1ccn2ncc(NC(=O)c3cc4cn(C5CCCOC5)nc4nc3OC3CCC3)c2n1 (single isomer, unassigned) [Example 133]"
2.1,0.0002,"CC12CCC(n3cc4cc(C(=O)Nc5cnn6cccnc56)c(OC5CCC5)cc4n3)(CO1)C2 (single isomer, unassigned) [Example 137]"
2.5,0.123,"COc1cccc(NC(=O)c2cc(OC)c3nn(CCC(C)(C)OC)cc3c2)n1.Cl [Example 15, 7-Methoxy-2-(3-methoxy-3-methylbutyl)-N-(6-methoxypyridin-2-yl)-2H-indazole-5-carboxamide hydrochloride]"
3,0.211,"COc1cccc(NC(=O)c2cc(OC)c3nn(C4CCOCC4)cc3c2)n1.Cl [Example 16, 7-Methoxy-N-(6-methoxypyridin-2-yl)-2-(tetrahydro-2H-pyran-4-yl)-2H-indazole-5-carboxamide hydrochloride]"
0.4,0.0113,"COCCCn1cc2cc(C(=O)Nc3cccc(C(F)F)n3)c(OC)cc2n1.Cl [Example 17, N-(6-(difluoromethyl)pyridin-2-yl)-6-methoxy-2-(3-methoxypropyl)-2H-indazole-5-carboxamide hydrochloride]"
0.7,0.0063,"COc1cc2nn(C3CCOCC3)cc2cc1C(=O)Nc1cccc(C(F)F)n1.Cl [Example 24, N-(6-(difluoromethyl)pyridin-2-yl)-6-methoxy-2-(tetrahydro-2H-pyran-4-yl)-2H-indazole-5-carboxamide Hydrochloride]"
0.6,0.0003,"CC(C)Oc1cc2nn(C3CCOCC3)cc2cc1C(=O)Nc1cccc(C(F)F)n1.Cl [Example 25, N-(6-(difluoromethyl)pyridin-2-yl)-6-isopropoxy-2-(tetrahydro-2H-pyran-4-yl)-2H-indazole-5-carboxamide hydrochloride]"
0.7,0.0009,"COCCCn1cc2cc(C(=O)Nc3cccc(C(F)F)n3)c(OC(C)C)cc2n1.Cl [Example 26, N-(6-(difluoromethyl)pyridin-2-yl)-6-isopropoxy-2-(3-methoxypropyl)-2H-indazole-5-carboxamide hydrochloride]"
